Test results published in ChEMBL document CHEMBL3259791, “Discovery of (E)-3-((styrylsulfonyl)methyl)pyridine and (E)-2-((styrylsulfonyl)methyl)pyridine derivatives as anticancer agents: synthesis, structure-activity relationships, and biological activities” (J Med Chem, 2014).

Columns and labels:
Type in all cases: functional
WI-38 [1] = experiment: Induction of apoptosis in human WI38 cells assessed as viable cells at […] after 48 hrs by annexin V/PI double staining (reference value: 80.59%); conditions: WI-38, 48 h, read-out: Activity
WI-38 [2] = experiment: Cell cycle arrest in human WI38 cells assessed as accumulation at subG1 phase at 1 uM after 24 hrs by flow cytometric analysis (reference value: 10.53%)
A2780 [3] = experiment: Induction of apoptosis in human A2780 cells assessed as necrotic cells at […] after 48 hrs by annexin V/PI double staining (reference value: 0.53%)
A2780 [4] = experiment: Cell cycle arrest in human A2780 cells assessed as accumulation at S phase at 1 uM after 24 hrs by flow cytometric analysis (reference value: 22.72%)
WI-38 [5] = experiment: Induction of apoptosis in human WI38 cells assessed as early-stage apoptotic cells at […] after 48 hrs by annexin V/PI double staining (reference value: 2.16%)
HCT-116 = experiment: Antiproliferative activity against human HCT116 cells assessed as cell growth inhibition after 72 hrs by MTT assay; conditions: HCT-116, 72 h
WI-38 [6] = experiment: Induction of apoptosis in human WI38 cells assessed as late-stage apoptotic cells at 1 uM after 48 hrs by annexin V/PI double staining (reference value: 16.26%)
LNCaP = experiment: Antiproliferative activity against AR positive human LNCAP cells assessed as cell growth inhibition after 72 hrs by MTT assay
WI-38 [7] = experiment: Induction of apoptosis in human WI38 cells assessed as viable cells at 1 uM after 48 hrs by annexin V/PI double staining (reference value: 80.59%); conditions: WI-38, 48 h, read-out: Activity
WI-38 [8] = experiment: Antiproliferative activity against human WI38 cells assessed as cell growth inhibition after 72 hrs by MTT assay; conditions: WI-38, 72 h
WI-38 [9] = experiment: Cell cycle arrest in human WI38 cells assessed as accumulation at G2/M phase at […] after 24 hrs by flow cytometric analysis (reference value: 17.36%)
A2780 [10] = experiment: Induction of apoptosis in human A2780 cells assessed as early-stage apoptotic cells at 0.06 uM after 48 hrs by annexin V/PI double staining (reference value: 7.13%)
WI-38 [11] = experiment: Induction of apoptosis in human WI38 cells assessed as necrotic cells at 1 uM after 48 hrs by annexin V/PI double staining (reference value: 0.99%)
WI-38 [12] = experiment: Induction of apoptosis in human WI38 cells assessed as early-stage apoptotic cells at 1 uM after 48 hrs by annexin V/PI double staining (reference value: 2.16%)
WI-38 [13] = experiment: Induction of apoptosis in human WI38 cells assessed as necrotic cells at 0.06 uM after 48 hrs by annexin V/PI double staining (reference value: 0.99%)
A2780 [14] = experiment: Cell cycle arrest in human A2780 cells assessed as accumulation at S phase at 0.06 uM after 24 hrs by flow cytometric analysis (reference value: 22.72%)
A2780 [15] = experiment: Induction of apoptosis in human A2780 cells assessed as late-stage apoptotic cells at 1 uM after 48 hrs by annexin V/PI double staining (reference value: 10.20%)
A2780 [16] = experiment: Induction of apoptosis in human A2780 cells assessed as viable cells at 0.06 uM after 48 hrs by annexin V/PI double staining (reference value: 82.12%); conditions: A2780, 48 h, read-out: Activity
WI-38 [17] = experiment: Induction of apoptosis in human WI38 cells assessed as early-stage apoptotic cells at 0.06 uM after 48 hrs by annexin V/PI double staining (reference value: 2.16%)
A2780 [18] = experiment: Induction of apoptosis in human A2780 cells assessed as viable cells at […] after 48 hrs by annexin V/PI double staining (reference value: 82.12%); conditions: A2780, 48 h, read-out: Activity
A2780 [19] = experiment: Induction of apoptosis in human A2780 cells assessed as necrotic cells at 0.06 uM after 48 hrs by annexin V/PI double staining (reference value: 0.53%)
WI-38 [20] = experiment: Induction of apoptosis in human WI38 cells assessed as viable cells at 0.06 uM after 48 hrs by annexin V/PI double staining (reference value: 80.59%); conditions: WI-38, 48 h, read-out: Activity
A2780 [21] = experiment: Cell cycle arrest in human A2780 cells assessed as accumulation at subG1 phase at 1 uM after 24 hrs by flow cytometric analysis (reference value: 0.62%)
WI-38 [22] = experiment: Cell cycle arrest in human WI38 cells assessed as accumulation at G1 phase at 1 uM after 24 hrs by flow cytometric analysis (reference value: 55.89%)
MCF7 = experiment: Antiproliferative activity against human MCF7 cells assessed as cell growth inhibition after 72 hrs by MTT assay; conditions: MCF7, 72 h
HeLa = experiment: Antiproliferative activity against human HeLa cells assessed as cell growth inhibition after 72 hrs by MTT assay
A2780 [23] = experiment: Induction of apoptosis in human A2780 cells assessed as late-stage apoptotic cells at […] after 48 hrs by annexin V/PI double staining (reference value: 10.20%)
WI-38 [24] = experiment: Cell cycle arrest in human WI38 cells assessed as accumulation at subG1 phase at […] after 24 hrs by flow cytometric analysis (reference value: 10.53%)
A2780 [25] = experiment: Induction of apoptosis in human A2780 cells assessed as late-stage apoptotic cells at 0.06 uM after 48 hrs by annexin V/PI double staining (reference value: 10.20%)
WI-38 [26] = experiment: Cell cycle arrest in human WI38 cells assessed as accumulation at G1 phase at 0.06 uM after 24 hrs by flow cytometric analysis (reference value: 55.89%)
WI-38 [27] = experiment: Cell cycle arrest in human WI38 cells assessed as accumulation at G2/M phase at 0.06 uM after 24 hrs by flow cytometric analysis (reference value: 17.36%)
A2780 [28] = experiment: Induction of apoptosis in human A2780 cells assessed as early-stage apoptotic cells at […] after 48 hrs by annexin V/PI double staining (reference value: 7.13%)
A2780 [29] = experiment: Cell cycle arrest in human A2780 cells assessed as accumulation at G1 phase at 1 uM after 24 hrs by flow cytometric analysis (reference value: 54.89%)
[30] = Antiproliferative activity against human PANC1 cells assessed as cell growth inhibition after 72 hrs by MTT assay; conditions: PANC-1, 72 h
WI-38 [31] = experiment: Induction of apoptosis in human WI38 cells assessed as late-stage apoptotic cells at […] after 48 hrs by annexin V/PI double staining (reference value: 16.26%)
A2780 [32] = experiment: Cell cycle arrest in human A2780 cells assessed as accumulation at G1 phase at 0.06 uM after 24 hrs by flow cytometric analysis (reference value: 54.89%)
WI-38 [33] = experiment: Cell cycle arrest in human WI38 cells assessed as accumulation at S phase at 0.06 uM after 24 hrs by flow cytometric analysis (reference value: 16.25%)
A2780 [34] = experiment: Cell cycle arrest in human A2780 cells assessed as accumulation at subG1 phase at […] after 24 hrs by flow cytometric analysis (reference value: 0.62%)
A2780 [35] = experiment: Cell cycle arrest in human A2780 cells assessed as accumulation at G2/M phase at […] after 24 hrs by flow cytometric analysis (reference value: 21.81%)

Structure (SMILES): COc1cc(OC)c(/C=C/S(=O)(=O)Cc2ccc(OC)c(N)n2)c(OC)c1
- viability at […] (WI-38 [1]): 84.4%
- Activity (WI-38 [2]): 8.09%
- Activity (A2780 [3]): 1.97%
- Activity (A2780 [4]): 24.49%
- Activity (WI-38 [5]): 1.49%
- GI50 (HCT-116): 8 nM
- Activity (WI-38 [6]): 15.52%
- GI50 (LNCaP): 3 nM
- viability at 1 µM (WI-38 [7]): 79.8%
- GI50 (WI-38 [8]): > 10000 nM
- Activity (WI-38 [9]): 24.87%
- Activity (A2780 [10]): 38%
- Activity (WI-38 [11]): 1.83%
- Activity (WI-38 [12]): 2.86%
- Activity (WI-38 [13]): 3.39%
- Activity (A2780 [14]): 17.39%
- Activity (A2780 [15]): 21.09%
- viability at 0.06 µM (A2780 [16]): 33.3%
- Activity (WI-38 [17]): 1.37%
- viability at […] (A2780 [18]): 25.3%
- Activity (A2780 [19]): 2.88%
- viability at 0.06 µM (WI-38 [20]): 82.2%
- Activity (A2780 [21]): 2.71%
- Activity (WI-38 [22]): 60.09%
- GI50 (MCF7): 6 nM
- GI50 (HeLa): < 1 nM
- Activity (A2780 [23]): 25.61%
- Activity (WI-38 [24]): 12.08%
- Activity (A2780 [25]): 25.69%
- Activity (WI-38 [26]): 54.04%
- Activity (WI-38 [27]): 22.85%
- Activity (A2780 [28]): 46.99%
- Activity (A2780 [29]): 13.02%
- GI50 [30]: < 1 nM
- Activity (WI-38 [31]): 8.7%
- Activity (A2780 [32]): 12.87%
- Activity (WI-38 [33]): 9.81%
- Activity (A2780 [34]): 12.42%
- Activity (A2780 [35]): 50.94%
